# Tests used:
# Assay in all cases: In vitro antibacterial evaluation: minimum inhibitory concentration (MIC), broth dilution method
# Assay type in all cases: cell-based
# Escherichia coli = conditions: 18 hours at 35° C.
# Method in brief: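 MIC read as lowest drug level preventing visible growth. Organisms at 5×10^5 CFU/mL were exposed to a 64-0.06 μg/mL dilution series in Muller-Hinton II […] following NCCLS broth dilution standard M7-A2.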
# Staphylococcus sp. = conditions: for MIC Staphylococcus aureus (ATCC 29213): strain ATCC 29213; for MIC Staphylococcus aureus (GC 1131): strain GC 1131; for MIC Staphylococcus aureus (GC 3051): strain GC 3051; for MIC Staphylococcus aureus (GC 3053): strain GC 3053; for MIC Staphylococcus aureus (GC 4541): strain GC 4541; for MIC Staphylococcus aureus (GC 4542): strain GC 4542; for MIC Staphylococcus aureus-SMITH (GC 4543): strain GC 4543; for MIC Staphylococcus aureus (GC 4544): strain GC 4544; for MIC Staphylococcus aureus (GC 4545): strain GC 4545; for MIC Staphylococcus haemolyticus (GC 4546): strain GC 4546; for MIC Coagulase Negative Staphylococcus (GC 4547): strain GC 4547; for MIC Coagulase Negative Staphylococcus (GC 4548): strain GC 4548; for MIC Coagulase Negative Staphylococcus (GC 4549): strain GC 4549; for MIC Coagulase Negative Staphylococcus (GC 4551): strain GC 4551
# Method in brief: (§1)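 MIC by broth dilution in Mueller-Hinton II medium following NCCLS M7-A2. Inoculum was 5×10^5 CFU/mL and antibiotic was tested over 64-0.06 μg/mL. Gram-positive panel included clinical isolates resistant to methicillin, penicillin and/or vancomycin.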
# Enterococcus sp. = conditions: 18 hours at 35° C.
# Method in brief: as §1
# Streptococcus sp. = conditions: 18 hours at 35° C.
# Method in brief: as §1
# [1] = Enterococcus faecalis (ATCC 29212)
# [2] = Enterococcus faecalis (GC 2242)
# [3] = Enterococcus faecalis (GC 2691)
# [4] = Enterococcus faecalis (GC 3059)
# [5] = Enterococcus faecalis (GC 4552)
# [6] = Enterococcus faecalis (GC 4553)
# [7] = Enterococcus faecalis (GC 4554)
# [8] = Enterococcus faecalis (GC 6189)
# [9] = broth dilution, inoculum 5×10^5 CFU/mL
# [10] = Streptococcus agalactiae (GC 4564)
# [11] = Streptococcus pneumoniae (ATCC 6301)
# [12] = Streptococcus pneumoniae (GC 1894)
# [13] = Streptococcus pneumoniae (GC 4565)
# [14] = Streptococcus pyogenes (GC 4563)
smiles,measurement,setting,value
"CC(c1ccccc1)C1NC(=O)CNC(=O)C(CO)NC(=O)C(C(O)C2CNC(=N)N2C2OC(CO)C(O)C(O)C2O)NC(=O)C(C(O)C2CNC(=N)N2)NC(=O)C(Cc2ccc(OC3OC(CO)C(OC4OC5COC6(CC7CCC6(C)C7(C)C)OC5C(O)C4O)C(O)C3O)cc2)NC1=O (stereo not drawn) [Example 214, Cyclo[glycyl-β-methylphenylalanyl-O-[4-O-[4,6-O-(1,7,7-trimethylbicyclo[2.2.1]hept-2-ylidene)hexopyranosyl]hexopyranosyl]tyrosyl-3-(2-iminoimidazolidin-4-yl)seryl-3-(3-hexopyranosyl-2-iminoimidazolidin-4-yl)serylseryl]]",MIC Escherichia coli (ATCC 25922),Escherichia coli,64 mg/L
same,MIC Escherichia coli (GC 4559),Escherichia coli,64 mg/L
same,MIC Escherichia coli (GC 4560),Escherichia coli,2 mg/L
same,MIC Staphylococcus aureus (ATCC 29213),Staphylococcus sp.,2 mg/L
same,MIC Staphylococcus aureus (GC 1131),Staphylococcus sp.,1 mg/L
same,MIC Staphylococcus aureus (GC 3051),Staphylococcus sp.,32 mg/L
same,MIC Staphylococcus aureus (GC 3053),Staphylococcus sp.,2 mg/L
same,MIC Staphylococcus aureus (GC 4541),Staphylococcus sp.,2 mg/L
same,MIC Staphylococcus aureus (GC 4542),Staphylococcus sp.,1 mg/L
same,MIC Staphylococcus aureus-SMITH (GC 4543),Staphylococcus sp.,0.5 mg/L
same,MIC Staphylococcus aureus (GC 4544),Staphylococcus sp.,1 mg/L
same,MIC Staphylococcus aureus (GC 4545),Staphylococcus sp.,2 mg/L
same,MIC Staphylococcus haemolyticus (GC 4546),Staphylococcus sp.,1 mg/L
same,MIC Coagulase Negative Staphylococcus (GC 4547),Staphylococcus sp.,1 mg/L
same,MIC Coagulase Negative Staphylococcus (GC 4548),Staphylococcus sp.,1 mg/L
same,MIC Coagulase Negative Staphylococcus (GC 4549),Staphylococcus sp.,0.5 mg/L
same,MIC Coagulase Negative Staphylococcus (GC 4551),Staphylococcus sp.,1 mg/L
same,MIC Enterococcus avium (GC 4558),Enterococcus sp.; Enterococcus avium (GC 4558),2 mg/L
same,MIC Enterococcus faecalis (ATCC 29212),Enterococcus sp.; [1],2 mg/L
same,MIC Enterococcus faecalis (GC 2242),Enterococcus sp.; [2],2 mg/L
same,MIC Enterococcus faecalis (GC 2691),Enterococcus sp.; [3],2 mg/L
same,MIC Enterococcus faecalis (GC 3059),Enterococcus sp.; [4],2 mg/L
same,MIC Enterococcus faecalis (GC 4552),Enterococcus sp.; [5],2 mg/L
same,MIC Enterococcus faecalis (GC 4553),Enterococcus sp.; [6],2 mg/L
same,MIC Enterococcus faecalis (GC 4554),Enterococcus sp.; [7],2 mg/L
same,MIC Enterococcus faecalis (GC 6189),Enterococcus sp.; [8],2 mg/L
same,MIC Enterococcus faecium (GC 2243),Enterococcus sp.; Enterococcus faecium (GC 2243),1 mg/L
same,MIC Enterococcus faecium (GC 4556),Enterococcus sp.; Enterococcus faecium (GC 4556),2 mg/L
same,MIC Enterococcus faecium (GC 4557),Enterococcus sp.; Enterococcus faecium (GC 4557),2 mg/L
same,MIC Enterococcus avium (GC 4558),Enterococcus sp.; [9],2 mg/L
same,MIC Enterococcus faecalis (ATCC 29212),Enterococcus sp.; [9],2 mg/L
same,MIC Enterococcus faecalis (GC 2242),Enterococcus sp.; [9],2 mg/L
same,MIC Enterococcus faecalis (GC 2691),Enterococcus sp.; [9],2 mg/L
same,MIC Enterococcus faecalis (GC 3059),Enterococcus sp.; [9],2 mg/L
same,MIC Enterococcus faecalis (GC 4552),Enterococcus sp.; [9],2 mg/L
same,MIC Enterococcus faecalis (GC 4553),Enterococcus sp.; [9],2 mg/L
same,MIC Enterococcus faecalis (GC 4554),Enterococcus sp.; [9],2 mg/L
same,MIC Enterococcus faecalis (GC 6189),Enterococcus sp.; [9],2 mg/L
same,MIC Enterococcus faecium (GC 2243),Enterococcus sp.; [9],1 mg/L
same,MIC Enterococcus faecium (GC 4556),Enterococcus sp.; [9],2 mg/L
same,MIC Enterococcus faecium (GC 4557),Enterococcus sp.; [9],2 mg/L
same,MIC Streptococcus agalactiae (GC 4564),Streptococcus sp.; [10],<0.12 mg/L
same,MIC Streptococcus pneumoniae (ATCC 6301),Streptococcus sp.; [11],<0.12 mg/L
same,MIC Streptococcus pneumoniae (GC 1894),Streptococcus sp.; [12],<0.12 mg/L
same,MIC Streptococcus pneumoniae (GC 4565),Streptococcus sp.; [13],<0.12 mg/L
same,MIC Streptococcus pyogenes (GC 4563),Streptococcus sp.; [14],<0.12 mg/L
same,MIC Streptococcus agalactiae (GC 4564),Streptococcus sp.; [9],<0.12 mg/L
same,MIC Streptococcus pneumoniae (ATCC 6301),Streptococcus sp.; [9],<0.12 mg/L
same,MIC Streptococcus pneumoniae (GC 1894),Streptococcus sp.; [9],<0.12 mg/L
same,MIC Streptococcus pneumoniae (GC 4565),Streptococcus sp.; [9],<0.12 mg/L
same,MIC Streptococcus pyogenes (GC 4563),Streptococcus sp.; [9],<0.12 mg/L
"CC(c1ccccc1)C1NC(=O)CNC(=O)C(CO)NC(=O)C(C(O)C2CNC(=N)N2C2OC(CO)C(O)C(O)C2O)NC(=O)C(C(O)C2CNC(=N)N2)NC(=O)C(Cc2ccc(OC3OC(CO)C(OC4OC5COC6(CC7CCC6(C)C7(C)C)OC5C(O)C4O)C(O)C3O)cc2)NC1=O (stereo not drawn) [Example 215, Cyclo[glycyl-β-methylphenylalanyl-O-[4-O-[4,6-O-(1,7,7-trimethylbicyclo[2.2.1]hept-2-ylidene)hexopyranosyl]hexopyranosyl]tyrosyl-3-(2-iminoimidazolidin-4-yl)seryl-3-(3-hexopyranosyl-2-iminoimidazolidin-4-yl)serylseryl]]",MIC Escherichia coli (ATCC 25922),Escherichia coli,32 mg/L
same,MIC Escherichia coli (GC 4559),Escherichia coli,32 mg/L
same,MIC Escherichia coli (GC 4560),Escherichia coli,1 mg/L
same,MIC Staphylococcus aureus (ATCC 29213),Staphylococcus sp.,0.5 mg/L
same,MIC Staphylococcus aureus (GC 1131),Staphylococcus sp.,0.5 mg/L
same,MIC Staphylococcus aureus (GC 3051),Staphylococcus sp.,0.5 mg/L
same,MIC Staphylococcus aureus (GC 3053),Staphylococcus sp.,1 mg/L
same,MIC Staphylococcus aureus (GC 4541),Staphylococcus sp.,0.5 mg/L
same,MIC Staphylococcus aureus (GC 4542),Staphylococcus sp.,0.5 mg/L
same,MIC Staphylococcus aureus-SMITH (GC 4543),Staphylococcus sp.,<0.12 mg/L
same,MIC Staphylococcus aureus (GC 4544),Staphylococcus sp.,0.5 mg/L
same,MIC Staphylococcus aureus (GC 4545),Staphylococcus sp.,1 mg/L
same,MIC Staphylococcus haemolyticus (GC 4546),Staphylococcus sp.,0.5 mg/L
same,MIC Coagulase Negative Staphylococcus (GC 4547),Staphylococcus sp.,0.5 mg/L
same,MIC Coagulase Negative Staphylococcus (GC 4548),Staphylococcus sp.,0.5 mg/L
same,MIC Coagulase Negative Staphylococcus (GC 4549),Staphylococcus sp.,<0.12 mg/L
same,MIC Coagulase Negative Staphylococcus (GC 4551),Staphylococcus sp.,0.5 mg/L
same,MIC Enterococcus avium (GC 4558),Enterococcus sp.; Enterococcus avium (GC 4558),0.5 mg/L
same,MIC Enterococcus faecalis (ATCC 29212),Enterococcus sp.; [1],0.5 mg/L
same,MIC Enterococcus faecalis (GC 2242),Enterococcus sp.; [2],1 mg/L
same,MIC Enterococcus faecalis (GC 2691),Enterococcus sp.; [3],1 mg/L
same,MIC Enterococcus faecalis (GC 3059),Enterococcus sp.; [4],1 mg/L
same,MIC Enterococcus faecalis (GC 4552),Enterococcus sp.; [5],1 mg/L
same,MIC Enterococcus faecalis (GC 4553),Enterococcus sp.; [6],0.5 mg/L
same,MIC Enterococcus faecalis (GC 4554),Enterococcus sp.; [7],1 mg/L
same,MIC Enterococcus faecalis (GC 6189),Enterococcus sp.; [8],1 mg/L
same,MIC Enterococcus faecium (GC 2243),Enterococcus sp.; Enterococcus faecium (GC 2243),0.5 mg/L
same,MIC Enterococcus faecium (GC 4556),Enterococcus sp.; Enterococcus faecium (GC 4556),1 mg/L
same,MIC Enterococcus faecium (GC 4557),Enterococcus sp.; Enterococcus faecium (GC 4557),0.5 mg/L
same,MIC Enterococcus avium (GC 4558),Enterococcus sp.; [9],0.5 mg/L
same,MIC Enterococcus faecalis (ATCC 29212),Enterococcus sp.; [9],0.5 mg/L
same,MIC Enterococcus faecalis (GC 2242),Enterococcus sp.; [9],1 mg/L
same,MIC Enterococcus faecalis (GC 2691),Enterococcus sp.; [9],1 mg/L
same,MIC Enterococcus faecalis (GC 3059),Enterococcus sp.; [9],1 mg/L
same,MIC Enterococcus faecalis (GC 4552),Enterococcus sp.; [9],1 mg/L
same,MIC Enterococcus faecalis (GC 4553),Enterococcus sp.; [9],0.5 mg/L
same,MIC Enterococcus faecalis (GC 4554),Enterococcus sp.; [9],1 mg/L
same,MIC Enterococcus faecalis (GC 6189),Enterococcus sp.; [9],1 mg/L
same,MIC Enterococcus faecium (GC 2243),Enterococcus sp.; [9],0.5 mg/L
same,MIC Enterococcus faecium (GC 4556),Enterococcus sp.; [9],1 mg/L
same,MIC Enterococcus faecium (GC 4557),Enterococcus sp.; [9],0.5 mg/L
same,MIC Streptococcus agalactiae (GC 4564),Streptococcus sp.; [10],<0.12 mg/L
same,MIC Streptococcus pneumoniae (ATCC 6301),Streptococcus sp.; [11],<0.12 mg/L
same,MIC Streptococcus pneumoniae (GC 1894),Streptococcus sp.; [12],<0.12 mg/L
same,MIC Streptococcus pneumoniae (GC 4565),Streptococcus sp.; [13],<0.12 mg/L
same,MIC Streptococcus pyogenes (GC 4563),Streptococcus sp.; [14],<0.12 mg/L
same,MIC Streptococcus agalactiae (GC 4564),Streptococcus sp.; [9],<0.12 mg/L
same,MIC Streptococcus pneumoniae (ATCC 6301),Streptococcus sp.; [9],<0.12 mg/L
same,MIC Streptococcus pneumoniae (GC 1894),Streptococcus sp.; [9],<0.12 mg/L
same,MIC Streptococcus pneumoniae (GC 4565),Streptococcus sp.; [9],<0.12 mg/L
same,MIC Streptococcus pyogenes (GC 4563),Streptococcus sp.; [9],<0.12 mg/L

# Reference: patent US8247211B2, “Glycopeptide antibiotics” (American Cyanamid Company, priority 2001, dated 2012)
